Measured values published in EP4813383A1, “USE OF TAFAMIDIS AND PHARMACEUTICALLY ACCEPTABLE SALT THEREOF IN PREVENTION, ALLEVIATION, OR TREATMENT OF DISEASES ASSOCIATED WITH HIF-2a” (Huaya Jiyuan (Shenzhen) Pharmaceutical Co., Ltd., priority 2024, dated 2025).

Legend:
[1] = tested on: 5/6 nephrectomy (5/6Nx) rat model; assay: 5/6 nephrectomy (5/6Nx) rat model; assay type: in vivo, Male Sprague Dawley (SD) rats
From the text: Male Sprague Dawley (SD) rats are used to establish a renal injury-induced anemia model through 5/6 nephrectomy surgery to investigate the erythropoiesis-promoting effect of tafamidis. After a one-week acclimation period, the rats are anesthetized with isoflurane, and the left kidney is exposed through a midline abdominal incision. Ligatures are placed at the upper one-third and lower one-third positions of the kidney, and the corresponding renal tissues outside the ligatures are excised. After a one-week recovery period, the right kidney is excised, with eight rats assigned to the nephrectomy group and the remaining eight rats serving as a non-operated normal control group. At week 4, renal dysfunction in the operated rats is confirmed by assessing serum urea and creatinine levels. Tafamidis and roxadustat are dissolved in a vehicle containing 10% dimethyl sulfoxide (DMSO), 30% polyethylene glycol 400 (PEG 400), 5% Tween-80, 1% hydrochloric acid (113.3 mM), 9% 0.1 N sodium hydroxide, and 45% normal saline. […] Starting from week 6, the tafamidis treatment group and the roxadustat group are orally administered the corresponding compound at 10 mg/kg daily (10 mg orally per day per 1 kg body weight of rat) for four weeks, while the sham-operated group and the 5/6 nephrectomy model (5/6Nx) rats are administered the vehicle based on the same dosing regimen. Hematological analysis is performed weekly, and urine samples are collected on the day following the final treatment, so as to determine urinary total protein (UTP) and urinary creatinine (UCREA). Hematological analysis is performed using the Sysmex Europe XN-2000 automated hematology analyzer, and urinalysis is performed using the Cobas C501 automated analyzer, both using commercially available kits in accordance with the manufacturers' instructions. After sample collection, the rats are euthanized. Statistical significance is determined by one-way analysis of variance (ANOVA), and then a Dunnett's test is performed for comparison with the 5/6Nx group (*P < 0.05, **P < 0.01, ***P < 0.001).

[2] = tested on: Unilateral ureteral obstruction (UUO)-induced mouse model; assay: Unilateral ureteral obstruction (UUO)-induced mouse model of renal injury and anemia; assay type: in vivo, Male Balb/c mice; conditions: for Pathological score for renal tubular injury: H&E staining, Paller score, UUO control group 4.56 ± 0.19; for Urea level: serum after final treatment, UUO control group 6.26 ± 0.14; for Reduction in fibrosis: Masson's trichrome staining, interstitial fibrosis, UUO control group 26.0 ± 1.9%
From the text: Animal model establishment: Male Balb/c mice are anesthetized with isoflurane and then secured to an operating table with medical tape. After preparation of an abdominal midline incision site, the surgical part is disinfected with 75% ethanol-iodine tincture-ethanol. Subsequently, an incision is made along the linea alba of the mouse, and the incision is held open with a laparotomy retractor. The left ureter is isolated using a sterile cotton swab and curved forceps and ligated near the bladder dome using 3-0 suture. One drop of normal saline is added into the abdominal cavity, and then the abdomen is sutured. Following recovery on a heating pad, the mouse is returned to the cage, maintained under normal feeding and drinking conditions, and observed, thereby completing model establishment. For the sham-operated group, all procedures are the same as those of the model group except that no ligation is performed. For the treatment groups in the UUO model, male Balb/c mice, after a one-week acclimation period, are orally administered tafamidis (tafamidis treatment group) or roxadustat (roxadustat treatment group) by gavage for three consecutive days. The dose in the first tafamidis treatment group is 5 mg/kg/day, the dose in the second tafamidis treatment group is 10 mg/kg/day, and the dose in the roxadustat treatment group is 10 mg/kg/day. The drug administration is continued for seven days after unilateral ureteral obstruction surgery. A solvent is administered to the mice in the sham-operated group and the UUO control group based on the same dosing regimen. Serum analysis is performed after the final treatment. Serum analysis is performed using a Mindray BS-2000M automated […] analyzer with commercially available kits based on the manufacturer's instructions. After sample collection, the […] are euthanized. Statistical significance is determined by one-way analysis of variance (ANOVA), and then a Dunnett's test is performed for comparison with the UUO control group (*P < 0.05, **P < 0.01, ***P < 0.001).
Isolated left kidney samples from mice are fixed in 4% paraformaldehyde, dehydrated, embedded in paraffin, and sectioned. The tissue sections are 4 µm thick, and are subsequently subjected to histochemical staining such as H&E staining and Masson's trichrome staining. After staining, the sections are scanned using advanced three-dimensional histological imaging technology, and high-resolution images are captured using a Pannoramic DESK/MIDI/250/1000 system. H&E staining is analyzed to evaluate renal tubular injury. 10 fields are randomly selected from each sample, and examined at a 40× magnification. The degree of renal tubular injury is assessed using a semi-quantitative scoring system (Paller score): 0 (no injury), 1 (<25% injury), 2 (25% to 50% injury), 3 (50% to 75% injury), and 4 (>75% injury). In addition, the entire tissue section is assessed at a 0.7× magnification to determine the extent of collagen fiber deposition shown by Masson's trichrome staining. Semi-quantitative analysis of the collagen fiber area is performed using Image-Pro Plus 6.0 software. Statistical significance is determined by one-way analysis of variance (ANOVA), and then a Dunnett's test is performed for comparison with the UUO control group (*P < 0.05, **P < 0.01, ***P < 0.001).

[3] = 10 mg/kg daily oral for four weeks, urine on the day after final treatment
[4] = 10 mg/kg/day oral gavage, listed as Roxadustat

Row | UTP excretion levels, increase compared with the 5/6Nx group ([1]; 10 mg/kg daily oral for four weeks, urine on the day after final treatment, p < 0.01) | RBC levels (erythrocytosis) ([1]; 10 mg/kg daily oral, day 14, against the physiological range of the healthy control group) | SMILES | UTP excretion levels [1, 3] | effect on UCREA [1, 3] | red blood cell (RBC) count ([1]; 10 mg/kg daily oral, week 4, 5/6Nx group 7.7 ± 0.3 × 10^12, p < 0.05) | Gross observation: pallor of the obstructed kidney ([2]; 5 mg/kg/day oral gavage) | Pathological score for renal tubular injury ([2]; 5 mg/kg/day oral gavage) | Urea level ([2]; 5 mg/kg/day oral gavage) | Pathological score for renal tubular injury ([2]; 10 mg/kg/day oral gavage) | Urea level ([2]; 10 mg/kg/day oral gavage) | Pathological score for renal tubular injury [2, 4] | Reduction in fibrosis ([2]; 10 mg/kg/day oral gavage) | Reduction in fibrosis [2, 4] | Urea level [2, 4]
1 |  |  | O=C(O)c1ccc2nc(-c3cc(Cl)cc(Cl)c3)oc2c1 [tafamidis, 2-(3,5-dichlorophenyl)-1,3-benzoxazole-6-carboxylic acid] | remain at baseline levels | essentially no effect | 8.2 ± 0.3 × 10^12 cells/L | significantly alleviates | 2.85 ± 0.83, P < 0.05 | 5.67 ± 0.23, P = 0.10 mmol/L | 2.93 ± 0.35, P < 0.05 | 5.28 ± 0.29, P < 0.05 mmol/L |  |  |  | 
2 | 3.3 fold | notable erythrocytosis | Cc1nc(C(=O)NCC(=O)O)c(O)c2ccc(Oc3ccccc3)cc12 [roxadustat] |  |  |  |  |  |  | 4.78 ± 0.09 | 5.36 ± 0.10 mmol/L | 4.78 ± 0.09, P = 0.98 | 21.8 ± 1.6% | 21.8 ± 1.6%, P = 0.37 | 5.36 ± 0.10, P < 0.001 mmol/L
